Broadly, the IC50 is the point on the concentration scale where inhibition reaches its midpoint.

Common to all, as to type: biochemical
The target in one test is SIK1 (Homo sapiens (Human), UniProt P57059). The test can be described thus: Phosphorylation assay SIK1 (RapidFire mass spectrometry). The settings on record: 5 nM SIK1, CHK-peptide, ATP, 30 min pre-incubation, 45 min incubation; read-out: SIK1 RF IC50. How it is done:
(§1) In the presence of SIK2 (resp. SIK1 or SIK3) and ATP the CHK-peptide ([…] with C-terminal arginine amide modification) were phosphorylated at one of the four feasible serine's. Only one phosphorylation is observed under the assay conditions. 60 nl of each compound dilution series (12 point; dilution factor 3, generally 30 μM to 170 pM) in DMSO were transferred by acoustic dispensing to the assay plate and 30 minutes pre-incubated (ambient temperature) after the addition of 5 μl SIK1 (5 nM) resp. 5 μl SIK2 (0.5 nM) or 7 μl SIK3 (1.5 nM) in assay-buffer (12.5 mM HEPES (pH 7.0), 10 mM magnesium acetate, 0.005% BSA). 10 μM CHK-peptide solution and 5 μl of 100 μM ATP for SIK1 & SIK2 resp. 3 μl for SIK3 in assay-buffer were added and incubated ambient for 45 minutes. 40 μl of 0.125% formic acid in water were added to quench the reaction. RapidFire (RF) Mass Spectrometry was utilized for data generation as described below. The multiple charged species (3-5 charges) for the phosphorylated and non-phosphorylated form measured by MRM (Multiple Reaction Monitoring; API5000 or 6500+) or EIC (Extracted Ion Current; QToF) were summed up and the ratio calculated (sum phosphorylated species/sum all species) for data evaluation. Normalization was performed by Genedata software based on the non-inhibition control DMSO and the commercially available SIK inhibitor @1 μM YKL-05-099 (CAS number 1936529-65-5). The results of the assay are expressed in half-maximal inhibitory concentrations (IC50s) and are summarized below in Table 1.
(§2) Samples were aspirated by vacuum for max. 600 ms and loaded to C4-cartridge (Agilent; #G9203A) for 3000 ms@1.5 ml/min with 0.1% formic acid in water. Afterwards samples were transferred to the API5000 (API6500+) or QToF mass spectrometer for 4000 ms@1.25 ml/min with 90% acetonitrile; 10% water; 0.007% TFA; 0.093 formic acid. The cartridge was reconditioned for additional 500 ms with 0.1% formic acid in water.
(§3) All MS analyses using the following MS-setup in MRM mode: Electrospray positive; Ion Spray Voltage: 4000V; Temperature: 550° C.; Collision Gas: 5; Curtain Gas: 15; Gas 1: 40; Gas 2: 42; EP: 10. DP=declustering potential; CE=collision energy; CXP=cell exit potential.
(§4) All MS analyses using the following MS-setup in Mode MS: Dual AJS Electrospray positive; VCap: 3000V; Drying & Sheath gas: 340° C.@81/min; Nebulizer: 60 psig; Nozzle Voltage: 2000V; Fragmentor: 130V; Skimmer: 35V; Oct1 RF Vpp: 700V; Ref masses on@5spectra/s

The target in another test is SIK2 (Homo sapiens (Human), UniProt Q9H0K1). The test can be described thus: Phosphorylation assay SIK2 (RapidFire mass spectrometry). As to conditions: 0.5 nM SIK2, CHK-peptide, ATP, 30 min pre-incubation, 45 min incubation; read-out: SIK2 RF IC50. The method, then:
as §1, §2, §3, §4

The target of the next test is SIK3 (Homo sapiens (Human), UniProt Q9Y2K2). The test can be described thus: Phosphorylation assay SIK3 (RapidFire mass spectrometry). The settings on record: 1.5 nM SIK3, CHK-peptide, ATP, 30 min pre-incubation, 45 min incubation; read-out: SIK3 RF IC50. How it is done: as §1, §2, §3, §4
Sequence of SIK3 (Q9Y2K2 whole entry): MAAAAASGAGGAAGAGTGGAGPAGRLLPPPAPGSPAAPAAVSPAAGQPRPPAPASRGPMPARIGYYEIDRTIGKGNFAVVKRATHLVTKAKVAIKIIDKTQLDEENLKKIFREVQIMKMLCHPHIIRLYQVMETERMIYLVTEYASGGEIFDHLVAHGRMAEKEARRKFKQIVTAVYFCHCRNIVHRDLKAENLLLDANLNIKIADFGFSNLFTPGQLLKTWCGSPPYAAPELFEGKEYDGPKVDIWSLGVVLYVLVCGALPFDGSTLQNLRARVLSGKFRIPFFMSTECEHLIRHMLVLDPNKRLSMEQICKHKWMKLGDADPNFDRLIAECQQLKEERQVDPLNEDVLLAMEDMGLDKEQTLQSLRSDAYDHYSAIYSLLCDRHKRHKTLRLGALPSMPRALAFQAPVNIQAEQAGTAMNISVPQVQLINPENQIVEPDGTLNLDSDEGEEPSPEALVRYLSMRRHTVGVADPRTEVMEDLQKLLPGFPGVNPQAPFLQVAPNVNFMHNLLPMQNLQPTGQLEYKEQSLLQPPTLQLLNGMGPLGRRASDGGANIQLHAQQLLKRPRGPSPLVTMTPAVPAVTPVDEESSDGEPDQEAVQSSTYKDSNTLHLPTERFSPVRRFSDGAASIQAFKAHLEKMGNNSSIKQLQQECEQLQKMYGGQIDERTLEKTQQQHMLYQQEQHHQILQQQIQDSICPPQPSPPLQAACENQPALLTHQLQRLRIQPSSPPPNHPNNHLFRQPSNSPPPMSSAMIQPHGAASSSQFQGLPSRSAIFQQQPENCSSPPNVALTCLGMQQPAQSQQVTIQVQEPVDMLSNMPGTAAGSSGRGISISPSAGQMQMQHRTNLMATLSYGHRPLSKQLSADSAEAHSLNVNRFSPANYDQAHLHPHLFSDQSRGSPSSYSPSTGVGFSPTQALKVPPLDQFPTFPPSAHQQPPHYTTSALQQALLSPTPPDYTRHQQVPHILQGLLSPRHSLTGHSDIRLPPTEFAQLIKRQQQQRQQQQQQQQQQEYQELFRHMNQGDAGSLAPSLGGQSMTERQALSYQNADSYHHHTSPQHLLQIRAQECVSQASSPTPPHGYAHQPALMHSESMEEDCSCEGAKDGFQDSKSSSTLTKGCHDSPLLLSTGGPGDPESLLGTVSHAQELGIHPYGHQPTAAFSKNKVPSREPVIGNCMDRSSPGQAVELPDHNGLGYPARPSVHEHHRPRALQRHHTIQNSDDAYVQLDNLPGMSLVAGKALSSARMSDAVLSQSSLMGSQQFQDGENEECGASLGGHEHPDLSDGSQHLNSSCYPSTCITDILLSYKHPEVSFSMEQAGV

Sequence of SIK2 (Q9H0K1 whole entry): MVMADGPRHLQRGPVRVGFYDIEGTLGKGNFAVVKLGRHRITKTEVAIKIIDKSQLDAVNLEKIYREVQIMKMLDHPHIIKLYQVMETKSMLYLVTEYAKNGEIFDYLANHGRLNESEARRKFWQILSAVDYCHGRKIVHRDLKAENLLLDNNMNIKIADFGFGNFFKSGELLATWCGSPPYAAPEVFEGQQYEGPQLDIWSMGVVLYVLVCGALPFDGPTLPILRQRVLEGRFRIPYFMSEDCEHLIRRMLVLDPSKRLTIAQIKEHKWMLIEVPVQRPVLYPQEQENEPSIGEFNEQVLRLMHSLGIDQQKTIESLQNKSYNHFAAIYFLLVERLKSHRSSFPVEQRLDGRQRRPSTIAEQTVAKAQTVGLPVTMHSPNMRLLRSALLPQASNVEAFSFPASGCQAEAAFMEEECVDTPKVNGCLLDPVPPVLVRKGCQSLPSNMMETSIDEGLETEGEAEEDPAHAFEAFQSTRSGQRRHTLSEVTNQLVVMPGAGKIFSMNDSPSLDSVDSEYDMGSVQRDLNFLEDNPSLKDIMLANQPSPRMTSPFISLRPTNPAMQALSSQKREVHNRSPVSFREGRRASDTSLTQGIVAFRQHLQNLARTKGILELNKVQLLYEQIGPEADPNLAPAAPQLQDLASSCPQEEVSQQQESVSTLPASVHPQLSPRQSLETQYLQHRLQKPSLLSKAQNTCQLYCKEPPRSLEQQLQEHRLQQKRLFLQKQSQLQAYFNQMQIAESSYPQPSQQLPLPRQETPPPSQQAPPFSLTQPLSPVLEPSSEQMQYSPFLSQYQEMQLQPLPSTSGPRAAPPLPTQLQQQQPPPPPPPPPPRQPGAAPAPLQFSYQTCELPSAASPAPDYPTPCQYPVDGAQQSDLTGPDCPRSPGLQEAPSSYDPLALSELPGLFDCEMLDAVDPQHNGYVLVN
Sequence of SIK1 (P57059 whole entry): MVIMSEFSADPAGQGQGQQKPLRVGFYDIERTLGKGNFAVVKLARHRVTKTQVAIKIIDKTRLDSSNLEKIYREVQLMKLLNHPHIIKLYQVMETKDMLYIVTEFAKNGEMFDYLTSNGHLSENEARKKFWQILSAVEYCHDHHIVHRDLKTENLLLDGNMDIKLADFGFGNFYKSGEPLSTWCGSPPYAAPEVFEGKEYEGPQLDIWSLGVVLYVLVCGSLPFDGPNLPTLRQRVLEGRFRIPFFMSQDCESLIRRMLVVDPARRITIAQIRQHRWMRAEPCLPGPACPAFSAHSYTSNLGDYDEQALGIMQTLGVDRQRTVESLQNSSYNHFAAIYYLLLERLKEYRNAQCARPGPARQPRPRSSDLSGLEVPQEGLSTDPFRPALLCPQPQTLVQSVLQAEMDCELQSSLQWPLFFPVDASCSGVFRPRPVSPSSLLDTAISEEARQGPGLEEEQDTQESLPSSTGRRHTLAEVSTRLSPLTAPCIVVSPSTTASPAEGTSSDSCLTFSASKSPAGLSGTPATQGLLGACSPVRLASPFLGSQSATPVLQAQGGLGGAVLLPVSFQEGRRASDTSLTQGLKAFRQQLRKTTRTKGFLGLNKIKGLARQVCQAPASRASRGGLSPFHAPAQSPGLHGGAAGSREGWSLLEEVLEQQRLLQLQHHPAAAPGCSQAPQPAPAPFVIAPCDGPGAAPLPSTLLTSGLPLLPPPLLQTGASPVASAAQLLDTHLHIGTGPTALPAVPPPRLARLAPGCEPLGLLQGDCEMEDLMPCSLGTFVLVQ

Consider `Cc1ccc(Nc2cnc3c(c2)ncn3-c2ccc(C(C)O)c(-n3nc(C#N)cc3C)c2)nn1` (stereo not drawn) [Example 1, 1-[2-(1-Hydroxyethyl)-5-[6-[(6-methylpyridazin-3-yl)amino]imidazo[4,5-b]pyridin-3-yl]phenyl]-5-methyl-pyrazole-3-carbonitrile], for which the IC50 at SIK1 came out at 2800 nM; on SIK2, 16 nM; at SIK3, 2 nM.
For `Cc1ccc(Nc2cnc3c(-c4ccc(C(C)O)c(-n5nc(C#N)cc5C)c4)cnn3c2)nn1` (stereo not drawn) [Example 2, 1-[2-(1-Hydroxyethyl)-5-[6-[(6-methylpyridazin-3-yl)amino]pyrazolo[1,5-a]pyrimidin-3-yl]phenyl]-5-methyl-pyrazole-3-carbonitrile], the half-inhibitory concentration (IC50) at SIK1 was found to be 616 nM; at SIK2, 1 nM; at SIK3 it was 0.3 nM.
The corresponding values for `Cc1cc(C(F)F)nn1-c1cc(-n2cnc3cc(Nc4cccnn4)cnc32)ccc1C(C)O` (stereo not drawn) [Example 3, 1-[2-[3-(Difluoromethyl)-5-methyl-pyrazol-1-yl]-4-[6-(pyridazin-3-ylamino)imidazo[4,5-b]pyridin-3-yl]phenyl]ethanol] are 16600 nM, 207 nM and 27 nM.
The corresponding values for `COc1nc2c(cc1Nc1nnc(C)cc1C(=O)N(C)C)ncn2-c1ccc(C#N)c(-n2nc(OC(F)F)cc2C)c1` [Example 4, 3-[[3-[4-cyano-3-[3-(difluoromethoxy)-5-methyl-pyrazol-1-yl]phenyl]-5-methoxy-imidazo[4,5-b]pyridin-6-yl]amino]-N,N,6-trimethyl-pyridazine-4-carboxamide] are 18600 nM, 7 nM and 207 nM.
Taken in the same sequence, the figures for `Cc1ccc(Oc2cnc3c(-c4ccc(C(C)O)c(-n5nc(C#N)cc5C)c4)cnn3c2)nn1` (stereo not drawn) [Example 5, 1-[2-(1-Hydroxyethyl)-5-[6-(6-methylpyridazin-3-yl)oxypyrazolo[1,5-a]pyrimidin-3-yl]phenyl]-5-methylpyrazole-3-carbonitrile] were 14600 nM, 106 nM and 12 nM.
Consider `Cc1cc(C(=O)N(C)C)c(Nc2cnc3c(c2)ncn3-c2ccc(C#N)c(-n3nc(OC(F)F)cc3C)c2)nn1` [Example 6, 3-[[3-[4-Cyano-3-[3-(difluoromethoxy)-5-methyl-pyrazol-1-yl]phenyl]imidazo[4,5-b]pyridin-6-yl]amino]-N,N,6-trimethyl-pyridazine-4-carboxamide], for which the concentration for half-maximal inhibition (IC50) on SIK1 was no less than 30000 nM; at SIK2, 152 nM; on SIK3 it was 366 nM.
Turning to `Cc1ccc(Nc2cnc3c(c2)ncn3-c2cc(F)c(C(C)O)c(-n3nc(C#N)cc3C)c2)nn1` (stereo not drawn) [Example 7, 1-[3-Fluoro-2-(1-hydroxyethyl)-5-[6-[(6-methylpyridazin-3-yl)amino]imidazo[4,5-b]pyridin-3-yl]phenyl]-5-methyl-pyrazole-3-carbonitrile], the results for the IC50 on SIK1, on SIK2 and at SIK3 were 6010 nM, 21 nM and 6 nM, respectively.
Taken in the same sequence, the figures for `Cc1ccc(Nc2cnc3c(-c4ccc(C(C)O)c(-n5nc(C(F)F)cc5C)c4)cnn3c2)nn1` (stereo not drawn) [Example 8, 1-[2-[3-(Difluoromethyl)-5-methyl-pyrazol-1-yl]-4-[6-[(6-methylpyridazin-3-yl)amino]pyrazolo[1,5-a]pyrimidin-3-yl]phenyl]ethanol] were no less than 30000 nM, 52 nM and 4 nM.
